Experimental data from US11315685B2, “Method and system for predicting optimal epilepsy treatment regimes” (UCB BIOPHARMA SPRL, priority 2017, dated 2022).

test system: epilepsy patients; assay: treatment stability of AED monotherapy in the one year evaluation period (medical claims data); assay type: in vivo; settings: percentage of patients for which the treatment worked based on the clinician's recommendation; stable = monotherapy for at least 80% of the one year evaluation period without switching; adult epilepsy patients
Text: Step 18 may also include a substep 18e of filtering patients according to a defined target variable indicating AED treatment regime efficacy. In some preferred embodiments, the target variable is treatment stability. An aim of the present disclosure is to measure the efficacy of treatment regimens consisting of one or more AEDs. One way of measuring the efficacy of treatment would be to monitor the patient's progress with respect to seizure frequency before and after treatment. A reduction in the number of seizures would imply that the regimen is effective. […] Accordingly, method 10 defines a proxy for treatment effectiveness. Based on input from domain experts and clinicians, method 10 uses treatment stability as an indicator of the effectiveness of a particular treatment. In some preferred embodiments, a treatment regimen is considered stable for a patient if the patient satisfies a treatment change criteria and a minimum coverage criteria. […] The minimum coverage criteria is satisfied if the patient complies with the treatment regimen which has been prescribed for at least a predetermined percentage of the evaluation period. In one preferred embodiment, the minimum coverage criteria is satisfied if the patient complies with the treatment regimen which has been prescribed for at least 80% evaluation period.
If the MPR is greater than 80%, the patient can be determined to be stable for that drug.
For the unstable outcome, a treatment change occurs during the evaluation period—i.e., within […] the index date at which a first treatment regimen R1 is prescribed—in the form of a second treatment regimen R2. For the stable outcome, a treatment change—i.e., the second regimen R2—occurs after the evaluation period.
In this embodiment, for simplicity, the three aforementioned treatment categories—i.e., ADD, SWITCH and NEW—are not differentiated between when defining the index date and, in contrast to the technique in Devinsky et al., all medication claims for a patient in the baseline period before the AED-specific index date are used to train the AED-specific predictive model for the patient. In other embodiments, the treatment categories can be analyzed separately to assess the efficacy of a treatment regimen in different scenarios. In this embodiment, predictive models are built only for monotherapies, instead of for both monotherapies and combination therapies. For a particular AED, all the adult patients who have been prescribed the AED, have at least 1 year of medical history before the prescription and have at least one year of evaluation period after prescription are analyzed. As mentioned above, this subset of patients constitutes the cohort for the predictive model for the AED being analyzed and the target variable is treatment stability.
The control patients refer to the number of patients which switched to treatments other than the one being analyzed in the evaluation window and were considered unstable on that treatment regimen. The percentage baseline success rate refers to the percentage of patients for which the treatment worked based on the clinician's recommendation. The AUC refers to the area under the ROC curve or the C-statistic which is the ratio of the true positive rate (TPR) and the false positive rate (FPR) for different values of the threshold. This ratio reflects the performance of the model since a higher AUC would imply that higher TPR was achieved and more true positives were obtained than false positives.

Point of comparison: `CN1C(=O)CN=C(c2ccccc2)c2cc(Cl)ccc21` [DIAZEPAM, Diazepam], “Percentage Baseline Success Rate” value 25.22. Against it:
- CC1(C)O[C@@H]2[C@@H](CO[C@@]3(COS(N)(=O)=O)OC(C)(C)O[C@@H]23)O1 [TOPIRAMATE, Topiramate] — higher, 38.97
- COC[C@@H](NC(C)=O)C(=O)NCc1ccccc1 [LACOSAMIDE, Lacosamide] — higher, 37.73
- O=C1Nc2ccc(Cl)cc2C(c2ccccc2Cl)=NC1O (stereo not drawn) [LORAZEPAM, Lorazepam] — higher, 25.28
- O=C1CN=C(c2ccccc2Cl)c2cc([N+](=O)[O-])ccc2N1 [CLONAZEPAM, Clonazepam] — higher, 30.98
- NC(=O)N1c2ccccc2CC(=O)c2ccccc21 [OXCARBAZEPINE, Oxcarbazepine] — higher, 52.83
- CC(C)C[C@H](CN)CC(=O)O [PREGABALIN, Pregabalin] — higher, 28.60
- NS(=O)(=O)Cc1noc2ccccc12 [ZONISAMIDE, Zonisamide] — higher, 42.95
- NC(=O)N1c2ccccc2C=Cc2ccccc21 [CARBAMAZEPINE] — higher, 54.76
- O=C1NC(=O)C(c2ccccc2)(c2ccccc2)N1 [PHENYTOIN, Phenytoin] — higher, 45.01
- NCC1(CC(=O)O)CCCCC1 [GABAPENTIN, Gabapentin] — higher, 35.69
- CC[C@@H](C(N)=O)N1CCCC1=O [LEVETIRACETAM, Levetiracetam] — higher, 54.99
- CCC1(c2ccccc2)C(=O)NCNC1=O [PRIMIDONE, Primidone] — higher, 48.94
- CCC1(c2ccccc2)C(=O)NC(=O)NC1=O [PHENOBARBITAL, Phenobarbital] — higher, 55.76
- Nc1nnc(-c2cccc(Cl)c2Cl)c(N)n1 [LAMOTRIGINE, Lamotrigine] — higher, 53.32
